According to publication PMC9388626, “STUB1 is an intracellular checkpoint for interferon gamma sensing” (Scientific Reports, 2022):

Assays:
PC-3 cells = assay: Growth inhibition, CellTiter-Fluor (live-cell protease activity); assay type: cell-based, human; design: scale not given here; conditions: 10 ng ml-1 each, 6-day
Method: (§1) Parental and CRISPR-edited tumour cells were seeded in a cell density of 1800 (DU145), 2000 (PC-3), or 10,000 (MCF7) per well in 96-well CellCarrier plate (PelkinElmer, #6005550) filled with 50 µl culture media + 10% FBS. After 20–24 h incubation, the cells were treated with 10 ng ml^−1 of recombinant human IFNγ (R&D Systems, 285-IF-100), 10 ng ml^−1 of recombinant human TNFα (R&D Systems, 210-TA-020/CF) or a combination of both, by adding an equal volume of the complete culture media containing the cytokines. After incubating for 6 days without media change, the CellTiter-Glo 2.0 (Promega, G9243) or CellTiter-Fluor (Promega, G6082) assay were performed according to manufacturer’ instructions. The luminescence or fluorescence (Ex: 380–400 nm, Em: 505 nm) were detected by Inifinte M1000 PRO (Tecan). For CellTiter-Fluor, triplicate wells without cells were included to determine background fluorescence and the signal average was used for background substraction.

DU145 cells = assay: as above; assay type: cell-based, human; design: scale not given here; conditions: 10 ng ml-1 each, 6-day
Method: as §1

MCF7 cells [1] = assay: as above; assay type: cell-based, human; design: scale not given here; conditions: 10 ng ml-1 each, 6-day
Method: as §1

MCF7 cells [2] = assay: Growth inhibition, CellTiter-Glo 2.0 (ATP); assay type: cell-based, human; conditions: MCF7, 10 ng ml^−1, 6 days
Method: as §1

B16-F10 cells = assay: Flow cytometry, surface IFNGR1, mCherry2-peptide stable cells; assay type: cell-based, murine; conditions: stable expression; resting and IFNγ-stimulated (mouse IFNγ 0.03 ng ml^−1, 24 h)
Description: (§2) To generate the plasmids, gBlocks gene fragments (IDT) encoding the inhibitory biologic (FLAG-mCherry2-GGSGGS-SIWWPD) and the control biologic (FLAG-mCherry2-GGSGGS-SIWWHR) were cloned into pEF6 vector (Thermo Fisher Scientific) by standard restriction enzyme digestion and T4 DNA ligation. The final constructs were verified by Sanger sequencing. Coding sequences of the constructs are provided in Supplementary Table S5. To generate the stable cell lines, a total of 2 × 10^5 B16-F10, A375 or A549 cells were electroporated with 200 ng plasmid using DJ-110, FF-120 or CM-130 respectively—the preset programmed in 4D-nucleofector system (Lonza). The preparation of the cell suspension and the process of the electroporation are similar to that described in the CRISPR method section. The stable cell lines were selected using 10 µg ml^−1 blasticidin three days post-electroporation and were maintained in 5 µg ml^−1 blasticidin once the stable colonies were established. […]
(§3) Cells were dissociated from the wells with 0.25% trypsin (Gibco, 25200056). […] Cells were analyzed on LSRFortessa X-20 (BD Biosciences) with appropiate fluorescence compensation. The data were analyzed using FlowJo. […]

A375 cells [3] = assay: Flow cytometry, surface MHC-I, mCherry2-peptide stable cells; assay type: cell-based; conditions: A375, stable expression; human IFNγ 0.01 ng ml^−1, 24 h
Description: as §2, §3

A549 cells [4] = assay: as above; assay type: cell-based; conditions: A549, stable expression; human IFNγ 0.01 ng ml^−1, 24 h
Description: as §2, §3

A375 cells [5] = assay: Flow cytometry, surface IFNGR1, mCherry2-peptide stable cells; assay type: cell-based; conditions: A375, stable expression; untreated or human IFNγ 0.01 ng ml^−1, 24 h
Description: as §2, §3

A549 cells [6] = assay: as above; assay type: cell-based; conditions: A549, stable expression; untreated or human IFNγ 0.01 ng ml^−1, 24 h
Description: as §2, §3

STUB1 = assay: Co-immunoprecipitation of FLAG-mCherry2-peptide and STUB1; assay type: binding, murine; conditions: B16-F10 lysate, anti-FLAG
Method: B16-F10 cells stably expressing the biologic were harvested, rinsed with PBS, and lysed with chilled cell lysis buffer (Cell Signaling Technology, #9803) supplemented with Halt protease inhibitor cocktail (Life Technologies, #78430) and phosphatase inhibitor (Sigma-Aldrich, # 4906837001). Cellular lysates were clarified by centrifugation at 15,000 rpm at 4 °C for 15 min. Protein concentration was determined using BCA protein assay kit (Pierce, #23225). For each sample of the co-immunoprecipitation (co-IP), 20 µl of anti-FLAG magnetic beads (Sigma-Aldrich, M8823) was rinsed twice with 0.2 ml PBS, followed by addition of 500 µl diluted cellular lysate (60 µg, 0.12 µg µl^−1). For competitive inhibition, synthetic peptide (SIWWPD) was added into the co-IP mixture. The resulting mixture was rotated at room temperature for 4 h, after which the beads were rinsed with 3 × 0.5 ml PBS to remove the unbound proteins. Bound protein complexes were directly eluted with a 20 µl solution of LDS sample buffer (Life Technologies, NP0008) supplemented with sample reducing agent (Life Technologies, NP0009), followed by heating at 70 °C for 10 min. […] Blotting was similar to the Western Blot section described above. Primary antibodies used were: STUB1/CHIP (Cell Signaling Technology, #2080, 1:1000 dilution), FLAG (Sigma-Aldrich, F1804, 1:1000 dilution). […]

TNFα
FC in live-cell protease activity relative to parental cells (PC-3 cells; PC-3 PTPN2 sgRNA, replicate 1): 0.08
FC in live-cell protease activity relative to parental cells (PC-3 cells; PC-3 PTPN2 sgRNA, replicate 2): -0.06
FC in live-cell protease activity relative to parental cells (PC-3 cells; PC-3 PTPN2 sgRNA, replicate 3): 0.13
FC in live-cell protease activity relative to parental cells (PC-3 cells; PC-3 Parental, replicate 1): 0.11
FC in live-cell protease activity relative to parental cells (PC-3 cells; PC-3 Parental, replicate 2): -0.05
FC in live-cell protease activity relative to parental cells (PC-3 cells; PC-3 Parental, replicate 3): -0.07
FC in live-cell protease activity relative to parental cells (PC-3 cells; PC-3 STUB1 sgRNA, replicate 1): 0.20
FC in live-cell protease activity relative to parental cells (PC-3 cells; PC-3 STUB1 sgRNA, replicate 2): 0.00375
FC in live-cell protease activity relative to parental cells (PC-3 cells; PC-3 STUB1 sgRNA, replicate 3): -0.0246
FC in live-cell protease activity relative to parental cells (PC-3 cells; PC-3 control sgRNA, replicate 1): 0.19
FC in live-cell protease activity relative to parental cells (PC-3 cells; PC-3 control sgRNA, replicate 2): 0.026
FC in live-cell protease activity relative to parental cells (PC-3 cells; PC-3 control sgRNA, replicate 3): -0.06
FC in live-cell protease activity relative to parental cells (DU145 cells; DU145 PTPN2 sgRNA, replicate 1): 0.07
FC in live-cell protease activity relative to parental cells (DU145 cells; DU145 PTPN2 sgRNA, replicate 2): 0.13
FC in live-cell protease activity relative to parental cells (DU145 cells; DU145 PTPN2 sgRNA, replicate 3): -0.00707
FC in live-cell protease activity relative to parental cells (DU145 cells; DU145 Parental, replicate 1): -0.0322
FC in live-cell protease activity relative to parental cells (DU145 cells; DU145 Parental, replicate 2): 0.08
FC in live-cell protease activity relative to parental cells (DU145 cells; DU145 Parental, replicate 3): -0.05
FC in live-cell protease activity relative to parental cells (DU145 cells; DU145 STUB1 sgRNA, replicate 1): 0.0056
FC in live-cell protease activity relative to parental cells (DU145 cells; DU145 STUB1 sgRNA, replicate 2): 0.0106
FC in live-cell protease activity relative to parental cells (DU145 cells; DU145 STUB1 sgRNA, replicate 3): 0.16
FC in live-cell protease activity relative to parental cells (DU145 cells; DU145 control sgRNA, replicate 1): -0.0256
FC in live-cell protease activity relative to parental cells (DU145 cells; DU145 control sgRNA, replicate 2): -0.00666
FC in live-cell protease activity relative to parental cells (DU145 cells; DU145 control sgRNA, replicate 3): -0.0248
FC in live-cell protease activity relative to parental cells (MCF7 cells [1]; MCF7 PTPN2 sgRNA, replicate 1): -0.29
FC in live-cell protease activity relative to parental cells (MCF7 cells [1]; MCF7 PTPN2 sgRNA, replicate 2): -0.31
FC in live-cell protease activity relative to parental cells (MCF7 cells [1]; MCF7 PTPN2 sgRNA, replicate 3): -0.32
FC in live-cell protease activity relative to parental cells (MCF7 cells [1]; MCF7 Parental, replicate 1): 0.00519
FC in live-cell protease activity relative to parental cells (MCF7 cells [1]; MCF7 Parental, replicate 2): -0.01
FC in live-cell protease activity relative to parental cells (MCF7 cells [1]; MCF7 Parental, replicate 3): 0.00479
FC in live-cell protease activity relative to parental cells (MCF7 cells [1]; MCF7 STUB1 sgRNA, replicate 1): -0.18
FC in live-cell protease activity relative to parental cells (MCF7 cells [1]; MCF7 STUB1 sgRNA, replicate 2): -0.39
FC in live-cell protease activity relative to parental cells (MCF7 cells [1]; MCF7 STUB1 sgRNA, replicate 3): -0.36
FC in live-cell protease activity relative to parental cells (MCF7 cells [1]; MCF7 control sgRNA, replicate 1): -0.14
FC in live-cell protease activity relative to parental cells (MCF7 cells [1]; MCF7 control sgRNA, replicate 2): -0.16
FC in live-cell protease activity relative to parental cells (MCF7 cells [1]; MCF7 control sgRNA, replicate 3): -0.18
Growth inhibition of PTPN2- or STUB1-null cells (MCF7 cells [2]): could sensitize MCF7 breast tumour cell

mCherry2-SIWWPD
Cell surface IFNGR1 (B16-F10 cells): upregulation of IFNGR1 on the cell surface of B16-F10, under both resting and IFNγ-stimulating conditions
Cell surface MHC-I (A375 cells [3]): boost the surface levels of MHC-I in response to IFNγ
Cell surface MHC-I (A549 cells [4]): boost the surface levels of MHC-I in response to IFNγ
Cell surface IFNGR1 (A375 cells [5]): also resulted in the same phenotype
Cell surface IFNGR1 (A549 cells [6]): also resulted in the same phenotype
Co-precipitation of STUB1 (STUB1): STUB1 was co-precipitated
